Data: US20240150709A1, “COMPOSITIONS AND METHODS FOR MAKING PARASYMPATHETIC NEURONS” (University of Georgia Research Foundation, Inc., priority 2022, published 2024)

What was measured:
symN = assay: 6-OHDA toxicity in symN (western blot, immunostaining, microscopy); type: cell-based, human
Description: Day 30 parasymNs and symNs on 6-well plates were prepared for sample collection. One well for each sample. Cells were washed by PBS and scraped after incubating with lysis buffer contains RIPA buffer (Sigma-Aldrich, R0278, 1×), PMSF protease inhibitor (Thermo Fisher Scientific, 36978, 1 mM) and PhosSTOP phosphatase inhibitor (Sigma-Aldrich, 4906845001). Protein concentration was measured using Bradford reagent (Bio-Rad, 5000006). Proteins were loaded as 20 μg/well and ran in 12% acrylamide gel. After the transfer, nitrocellulose membranes were blocked by 5% skim milk in TBST.
Membranes were incubated with primary antibodies overnight at 4° C. The next day, membranes were washed by PBST and incubated with secondary antibodies for one hour at room temperature. Images were taken using the iBright western blot imager (Invitrogen, FL1500).
(§1) Cells were fixed by 4% paraformaldehyde for 20 minutes and washed twice by PBS. Fixed cells were permeabilized by 0.3% Triton, 1% BSA and 3% goat or donkey serum in 1× PBS for 20 minutes, and incubated with primary antibodies overnight at 4° C. The next day, cells were washed and incubated with secondary antibodies for one hour at room temperature. Lastly, cells were washed and incubated with DAPI (Sigma, D9542, 1:1000) for 15 minutes at room temperature. Fluorescent images were taken using the Lionheart FX Automated Microscope.

parasymN = assay: 6-OHDA toxicity in parasymN (microscopy); type: cell-based, human; details: parasymN after 6-OHDA
Description: as §1

hPSC-symNs = assay: MEA neural activity of hPSC-symNs; type: cell-based, human; details: 6-OHDA 100 μM, normalized to vehicle
Description: (§2) For neural activity measurements, day 16 SCPs were plated on PO/LM/FN coated MEA plates (Axion BioSystems, BioCircuit or CytoView) at 100×10^3 cells/cm^2. […] Activity of differentiated parasymNs or CMs/SMCs on desired timepoints was measured using a MEA plate reader (Axion BioSystems, Maestro Pro) under the neural detection mode or cardiac detection mode, respectively, according to manufacturer's instruction.

hPSC-parasymNs = assay: MEA neural activity of hPSC-parasymNs; type: cell-based, human; details: for parasymN activity (relative MFR: mean firing rate): 1 μM vs control, day 30 hPSC-parasymNs
Description: as §2

[1] = tested on: non-neural contaminating cell types; assay: Purification of non-neural contaminating cells in parasymN differentiation; type: cell-based, human; details: AraC added during the differentiation
Description: FIG. 13A illustrates that cell cycle inhibitor AraC was added during the differentiation.

[2] = tested on: 3T3-L1-derived white adipocytes; assay: Lipolysis assay, 3T3-L1-derived white adipocytes alone; type: cell-based, mouse; details: 10 μM isoproterenol; differentiated adipocytes alone
Description: 3T3-L1 were seeded at 20×10^3 cells/cm^2 and fed until 80% confluency, which was defined as day 0. From day 0-3, cells were fed with the differentiation medium containing DMEM (Gibco, 11965118), 10% FBS, 0.5 mM IBMX (Cayman, 13347), 1 μM dexamethasone (Sigma, D2915), and 10 μg/ml insulin (Sigma, 19278). From day 3-6, cells were fed with post-differentiation medium containing DMEM, 10% FBS, and 10 μg/ml insulin. After day 6, cells were maintained in DMEM with 10% FBS until the desired timepoints. To begin with, adipocyte culture medium was replaced with prewarmed lipolysis medium containing 0.5% BSA in DMEM, and cells were incubated for 4 hours at 37° C. After 4 hours, the lipolysis medium was replaced with fresh prewarmed lipolysis medium with test drugs and incubate for 90 minutes at 37° C. […] Glycerol release in adipocyte cultured medium was measured using Adipolysis Assay Kit (Cayman, 10009381) according to manufacturer's instruction.

[3] = tested on: 3T3-L1-derived white adipocytes; assay: Lipolysis assay, white adipocytes with or without parasymN co-culture; type: cell-based, mouse
Description: To begin with, adipocyte culture medium was replaced with prewarmed lipolysis medium containing 0.5% BSA in DMEM, and cells were incubated for 4 hours at 37° C. After 4 hours, the lipolysis medium was replaced with fresh prewarmed lipolysis medium with test drugs and incubate for 90 minutes at 37° C. Then, the cell culture medium was collected for the assay or stored at −20° C. for long-term storage. Glycerol release in adipocyte cultured medium was measured using Adipolysis Assay Kit (Cayman, 10009381) according to manufacturer's instruction.
To test whether adipose functions can be regulated by parasymN activity, the lipolytic activity was compared.

hPSC-CMs = details: nicotine 1 μM; co-culture with hPSC-parasymNs; MEA
Description: CM differentiation. […] Briefly, 80-90% confluent H9 ESCs were replated at a 1 to 5 ratio on Matrigel (Corning, 1:20)-coated plates. When cells reached 90% confluency, medium was changed to CDBM base medium, that contains DMEM/F12 (Gibco, 11320033), 64 mg/L ascorbic acid, 13.6 μg/L sodium selenium (Sigma, S5261), 10 μg/ml transferrin (Sigma, T3309) and Chemically Defined Lipid Concentrate (Gibco, 11905031). 5 μM CHIR99021 was added to CDBM medium on day 0. 0.6 U/ml heparin ([sequence] Technologies, 07980) was added to CDBM medium on day 1, 5, 6. 0.6 U/ml heparin and 3 μM XAV were added to CDBM medium on day 2, 3, 4. After day 7, medium was changed to CM maintenance medium that contains CDBM base, 20 μg/ml insulin (Sigma, 1-034), and 2% FBS. CMs were replated on day 10 using accutase at 200×10^3 cells/cm^2 on Matrigel-coated plates. […]
as §2

mouse salivary cell = assay: Calcium imaging of parasymN and mouse salivary cell coculture; type: cell-based; details: coculture with parasymN; nicotine stimulation
Text: FIG. 14B is a plot showing calcium imaging for salivary cell only upon nicotine stimulation.

For `NCCc1cc(O)c(O)cc1O` [6-OHDA], the “cell death markers PUMA/c-Cas3, western blot” value (symN; 12 hours after treating parasymN/symN with 6-OHDA) was “increased only in symN”, the “cell death marker c-Cas3, percentage of cells by immunostaining” value (symN; 24 hours after treating parasymN/symN with 6-OHDA) was “increased only in symN” and the “neural morphology by microscopy” value (symN; symN after 6-OHDA) was “damaged neural morphology”. For the same compound, the “neural morphology by microscopy” value (parasymN) was “almost intact”, the “relative MFR over 12 hours after 6-OHDA” value (hPSC-symNs) was “displayed early hyperactivity” and the “relative MFR over 12 hours after 6-OHDA” value (hPSC-parasymNs; 6-OHDA 100 μM, hPSC-parasymNs, normalized to vehicle) was “remained unaffected”.

With `Nc1ccn([C@@H]2O[C@H](CO)[C@@H](O)[C@@H]2O)c(=O)n1` [AraC] the “contaminating cells by immunostaining” value [1] was “reduced”.

With `CC(C[N+](C)(C)C)OC(N)=O` (stereo not shown) [BeCh, bethanechol] the “parasymN activity (relative MFR: mean firing rate)” value (hPSC-parasymNs; MEA) was “activated”.

For `CN1[C@@H]2CC[C@H]1C[C@@H](OC(=O)C(CO)c1ccccc1)C2` (stereo partly shown) [atropine], the “parasymN activity (relative MFR: mean firing rate)” value (hPSC-parasymNs; MEA) was “inactivated”.

`CC(C)NCC(O)c1ccc(O)c(O)c1` (stereo not shown) [isoproterenol] was tested, and the “lipolytic activity (glycerol release)” value [2] was “displayed lipolytic activity” and the “lipolytic levels induced by isoproterenol (normalized glycerol release)” value ([3]; 10 μM isoproterenol, adipocytes co-cultured with parasymNs) was “counteracted”.

For `CN1CCCC1c1cccnc1` (stereo not shown) [nicotine], the “beating of hPSC-CMs (relative beats/min)” value (hPSC-CMs) was “decreased”, the “salivary cell activity (calcium imaging)” value (mouse salivary cell) was “increased” and the “lipolysis levels (glycerol release)” value ([3]; 1 μM nicotine, adipocytes only or parasymN co-cultured) was “remained unchanged”. For the same compound, the “parasymN activity (relative MFR: mean firing rate)” value (hPSC-parasymNs; MEA) was “further inducible”.

For “angiotensin II (DRVYIHPF; Angiotensin-2; UniProt P01019 25-32, looked up) [Ang II, angiotensin II of the renin-angiotensin-aldosterone system]”, the “parasymN activity (fold change of MFR)” value (hPSC-parasymNs; angiotensin II vs control (DMSO), MEA) was “decreased”.
